Results on 10 compounds are retold here after paper PMC7850424 (Journal of Enzyme Inhibition and Medicinal Chemistry, 2021).

The target of test [1] is T1, SARS-CoV-2 3CL^pro (Severe acute respiratory syndrome coronavirus 2, UniProt P0DTD1). The experiment in a line: biochemical. The following applies: for inhibition at 50 µM: read-out: % Inhibition at 50 μM, 50 μM compound; for % Inhibition at 50 μM: 50 μM compound.
Test [2] deals with SARS-CoV-2 (C-Tan-nCoV Wuhan strain 01). Kind of test: microbe, parasite or virus in culture. The test is classed as cell-based.
For test [3], the target named is T1, SARS-CoV-2 3CL^pro. In kind it is biochemical.
Test [4] has as its target SARS-CoV 3CL^pro (Severe acute respiratory syndrome coronavirus, UniProt P0C6X7). The test is classed as biochemical.
Test [5] relates to SARS-CoV. Conditions: cited from earlier work.

SMILES strings stand for the structures.

Usually inhibition stands for the drop in the measured response relative to a control, in per cent. As to `O=c1cc(-c2ccccc2)oc2ccc(O)c(O)c12` [5,6-Dihydroxyflavone], the inhibition at 50 µM in test [1] turned out to be 26.6 ± 0.4%.
In the case of `O=c1cc(-c2ccccc2)oc2cc(O)c(O)cc12` [6,7-Dihydroxyflavone], the inhibition at 50 µM in test [1] amounted to 56.7 ± 2%.
One may read the EC50 as the midpoint of the concentration-response curve. The low end stands for greater potency, the high end for weaker potency. In the case of `O=c1cc(-c2ccccc2)oc2cc(O)c(O)c(O)c12` [Baicalein], the “inhibition activity at the post-entry stage” value in test [2] was “mainly active”. Moreover, in test [2] (Severe acute respiratory syndrome coronavirus 2, Vero, 48 h), the EC50 amounted to 2.9 µM. For the same compound, the “anti-SARS-CoV-2 3CLpro activity in cell lysate” value in test [3] is given as “showed inhibition activity”. In addition, the “inhibition of SARS-CoV 3CLpro activity” value in test [4] is “inhibit”.
Regarding `O=C(O)[C@H]1O[C@@H](Oc2cc3oc(-c4ccccc4)cc(=O)c3c(O)c2O)[C@H](O)[C@@H](O)[C@@H]1O` [Baicalin], the inhibition at 50 µM in test [1] was around 41%.
On to `O=c1cc(-c2ccccc2)oc2cc(O)cc(O)c12` [Chrysin], for which the inhibition at 50 µM in test [1] was found to be 2.6 ± 1.1%.
Same read-out and setting: for `O=c1c(O)c(-c2ccc(O)cc2)oc2c(O)c(O)cc(O)c12` [Herbacetin] the value was 59.1 ± 1.9%.
For `O=c1c(O)c(-c2cc(O)c(O)c(O)c2)oc2cc(O)cc(O)c12` [Myricetin], the inhibition at 50 µM in test [1] is 30.8 ± 4.6%. Besides, the “inhibition of SARS-CoV” value in test [5] was “reported to inhibit”.
Regarding `O=c1cc(-c2ccc(O)cc2)oc2cc(O)c(O)c(O)c12` [Scutellarein], the “inhibition of SARS-CoV” value in test [5] was “reported to inhibit”.
As for `O=C(O)[C@H]1O[C@@H](Oc2cc3oc(-c4ccc(O)cc4)cc(=O)c3c(O)c2O)[C@H](O)[C@@H](O)[C@@H]1O` [Scutellarin], in test [1] (50 µM), the “% Inhibition at 50 μM” value is listed as “mild inhibitory activity”. The inhibition at 50 µM in test [1] came to 28.9 ± 1.6%.
`COc1c(O)cc(O)c2c(=O)cc(-c3ccccc3)oc12` [Wogonin]: in test [1], the “% Inhibition at 50 μM” value is given as “not active” and the inhibition at 50 µM amounted to 6.1 ± 0.8%.
